The values that follow come from US20170280720A1, “ARGININE […] INHIBITORS AND USES THEREOF” (EPIZYME, INC., priority 2014, published 2017).

Broadly, the IC50 is the midpoint of a concentration-inhibition curve.

Sequence of PRMT5 (O14744 whole entry, species assumed): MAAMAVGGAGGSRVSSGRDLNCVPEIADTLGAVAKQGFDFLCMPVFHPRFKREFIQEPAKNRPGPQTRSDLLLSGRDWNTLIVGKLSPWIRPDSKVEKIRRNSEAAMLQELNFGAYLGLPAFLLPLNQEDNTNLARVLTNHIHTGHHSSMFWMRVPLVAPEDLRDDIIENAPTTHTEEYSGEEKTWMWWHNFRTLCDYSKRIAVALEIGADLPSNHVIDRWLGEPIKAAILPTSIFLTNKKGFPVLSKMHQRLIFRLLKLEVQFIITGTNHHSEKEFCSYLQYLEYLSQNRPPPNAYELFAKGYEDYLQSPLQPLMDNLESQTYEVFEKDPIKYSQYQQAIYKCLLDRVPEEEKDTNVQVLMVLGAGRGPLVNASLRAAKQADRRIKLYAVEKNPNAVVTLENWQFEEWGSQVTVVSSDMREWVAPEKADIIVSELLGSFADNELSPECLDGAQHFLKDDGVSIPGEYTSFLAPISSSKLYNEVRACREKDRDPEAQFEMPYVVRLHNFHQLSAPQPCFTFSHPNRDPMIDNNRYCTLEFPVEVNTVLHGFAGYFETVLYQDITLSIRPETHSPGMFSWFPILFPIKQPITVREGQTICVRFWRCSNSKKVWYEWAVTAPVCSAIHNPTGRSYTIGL
Sequence of PRMT5 (Q9BQA1 whole entry partner, species assumed): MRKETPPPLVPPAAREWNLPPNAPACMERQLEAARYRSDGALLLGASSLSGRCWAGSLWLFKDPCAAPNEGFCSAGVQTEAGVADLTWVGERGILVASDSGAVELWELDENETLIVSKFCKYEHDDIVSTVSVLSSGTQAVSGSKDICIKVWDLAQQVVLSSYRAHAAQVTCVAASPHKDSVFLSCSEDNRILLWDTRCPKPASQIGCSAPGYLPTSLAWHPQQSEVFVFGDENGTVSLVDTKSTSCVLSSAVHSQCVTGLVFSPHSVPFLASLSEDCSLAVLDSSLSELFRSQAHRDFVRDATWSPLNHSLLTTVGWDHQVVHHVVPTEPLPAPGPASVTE

The subject of one assay is asymmetric di-methyl PABP1 in RKO cells. Nature of the assay: In Cell Western (ICW) for asymmetric di-methyl PABP1 and DNA content in RKO cells. The settings on record: Homo sapiens, RKO, In Cell Western. The format is cell-based. The essentials:
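RKO cells treated with compound for 48 h at 37 °C, then fixed, methanol-permeabilized and stained for asymmetric di-methyl PABP1 (800 nm) with DRAQ5 DNA stain (700 nm). Signal ratio normalized to DMSO and 20 μM reference-compound controls. IC50 from nine 3-fold dilutions in triplicate.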
`CNCCN(C)Cc1cccc(-c2cc(N3CCC3)c3cnn(C(C)C)c3n2)c1` [Compound 79] displayed an IC50 of 20 µM.

As to `CNCCN(C)Cc1cccc(-c2nc(NCc3cn4ccsc4n3)c3cnn(C4CC4)c3n2)c1` [Compound 6], the IC50 was 0.39 µM.

In turn, `CNCCN(C)Cc1cccc(-c2nc(N3CCOCC3)c3cnn(C(C)C)c3n2)c1` [Compound 99] registered a 50% inhibitory concentration (IC50) of 1.54 µM.

As for `CC(C)n1ncc2c(NC(=O)N(C)C)cc(-c3cccc(CN(C)CCN)c3)nc21` [Compound 116], 2.62 µM corresponded to half-maximal inhibition (IC50).

The compound `CNCCN(C)Cc1cccc(-c2cc(C(=O)N3CCCCC3)c3cnn(C(C)C)c3n2)c1` [Compound 56] displayed an IC50 of 16.8 µM.

Compound `CNCCN(C)Cc1cccc(-c2cc(NC(=O)NC(C)C)c3cnn(C(C)C)c3n2)c1` [Compound 85] showed an IC50 of 2.58 µM.

`CNCCN(C)Cc1cccc(-c2nc(N(C)C3CCOCC3)c3cnn(C4CC4)c3n2)c1` [Compound 109, N1-(3-(1-cyclopropyl-4-(methyl(tetrahydro-2H-pyran-4-yl)amino)-1H-pyrazolo[3,4-d]pyrimidin-6-yl)benzyl)-N1,N2-dimethylethane-1,2-diamine]: the IC50 was 10.7 µM.

As to `CNCCN(C)Cc1cccc(-c2cc(C(=O)NCc3cc(C)nn3C)c3cnn(C(C)C)c3n2)c1` [Compound 120], the concentration for half-maximal inhibition (IC50) is 1.53 µM.

`CC(C)n1ncc2c(C(=O)NCC3CCOCC3)cc(-c3cccc(CN(C)CCN)c3)nc21` [Compound 108] displayed an IC50 of 1.13 µM.

In the case of `CC(C)n1cc2c(Cl)cc(-c3cccc(CN(C)CCN)c3)nc2n1` [Compound 59], half-maximal inhibition (IC50) required 15.5 µM.

In turn, `CNCCN(C)Cc1cccc(-c2ccc3cnn(C(C)C)c3n2)c1` [Compound 73] had an IC50 of 20 µM.

Compound `CNCCN(C)Cc1cccc(-c2cc(NC3CCOCC3)c3cnn(C(C)C)c3n2)c1` [Compound 76] registered an IC50 of 1.63 µM.

`CN(CCN)Cc1cccc(-c2nc(NC3CC3)c3cnn(C4CC4)c3n2)c1` [Compound 96] yielded an IC50 of 12.5 µM.

For `CNCCN(C)Cc1cccc(-c2nc(NCc3cnn(C)c3C)c3cnn(C4CC4)c3n2)c1` [Compound 57], the concentration for half-maximal inhibition (IC50) came out at 20 µM.

Consider `CC(C)NC(=O)Nc1cc(-c2cccc(CN(C)CCN)c2)nc2c1cnn2C(C)C` [Compound 86], for which the half-inhibitory concentration (IC50) came to 3.46 µM.

For `CNCCN(C)Cc1cccc(-c2nc(NC3CC3)c3cnn(C4CC4)c3n2)c1` [Compound 114], 20 µM corresponded to half-maximal inhibition (IC50).

Compound `CN(CCN)Cc1cccc(-c2nc(N(C)C3CCOCC3)c3cnn(C4CC4)c3n2)c1` [Compound 119] had an IC50 of 1.37 µM.

For `CNCCN(C)Cc1cccc(-c2cc(NC(=O)N(C)C)c3cnn(C(C)C)c3n2)c1` [Compound 123], the IC50 amounted to 4.78 µM.

Regarding `CN(CCN)Cc1cccc(-c2nc(NCc3cn4ccsc4n3)c3cnn(C4CC4)c3n2)c1` [Compound 5], the IC50 amounted to 20 µM.

Compound `CC(C)n1ncc2c(NS(=O)(=O)N(C)C)cc(-c3cccc(CN(C)CCN)c3)nc21` [Compound 107] had an IC50 of 11.8 µM.

Compound `CNCCN(C)Cc1cccc(-c2cc(N(C)C)c3cnn(C(C)C)c3n2)c1` [Compound 103] had an IC50 of 10.3 µM.

`CNCCN(C)Cc1cccc(-c2cc(OC)c3cnn(C(C)C)c3n2)c1` [Compound 124] had an IC50 of 17.8 µM.

With `CNCCN(C)Cc1cccc(-c2cc(N3CCC(C#N)CC3)c3cnn(C(C)C)c3n2)c1` [Compound 93], the IC50 amounted to 1.65 µM.

Regarding `CNCCN(C)Cc1cccc(-c2cc(N3CCCC(C#N)C3)c3cnn(C(C)C)c3n2)c1` (stereo not shown) [Compound 55], the half-maximal inhibitory concentration (IC50) was found to be 4.81 µM.

`CC(C)n1ncc2c(NC3CCOCC3)cc(-c3cccc(CN(C)CCN)c3)nc21` [Compound 101]: half-maximal inhibition (IC50) required 6.31 µM.

As for `CNCCN(C)Cc1cccc(-c2cc(C#N)c3cnn(C(C)C)c3n2)c1` [Compound 74], half-maximal inhibition (IC50) was put at 20 µM.

In turn, `CNCCN(C)Cc1cccc(-c2nc(NCc3ccccn3)c3cnn(C4CC4)c3n2)c1` [Compound 9] returned an IC50 of 20 µM.

`CNCCN(C)Cc1cccc(-c2cc(C(=O)NCc3ccccn3)c3cnn(C(C)C)c3n2)c1` [Compound 98] registered a half-inhibitory concentration (IC50) of 1.6 µM.

`COC(=O)Nc1cc(-c2cccc(CN(C)CCN)c2)nc2c1cnn2C(C)C` [Compound 71] came in with an IC50 of 11 µM.

Consider `CCNc1cc(-c2cccc(CN(C)CCNC)c2)nc2c1cnn2C(C)C` [Compound 72], for which inhibition was half-maximal at 5.36 µM (IC50).

`CNCCN(C)Cc1cccc(-c2cc(NC3COC3)c3cnn(C(C)C)c3n2)c1` [Compound 58] had a half-maximal inhibitory concentration (IC50) of 3.2 µM.

As for `CNCCN(C)Cc1cccc(-c2cc(-c3cnn(C)c3)c3cnn(C(C)C)c3n2)c1` [Compound 49, N1-(3-(1-isopropyl-4-(1-methyl-1H-pyrazol-4-yl)-1H-pyrazolo[3,4-b]pyridin-6-yl)benzyl)-N1,N2-dimethylethane-1,2-diamine], the IC50 is 1.29 µM.

On to `CCOC(=O)c1cc(-c2cccc(CN(C)CCNC)c2)nc2c1cnn2C(C)C` [Compound 78], for which the midpoint of inhibition, the IC50, lay at 13 µM.

The compound `CNCCN(C)Cc1cccc(-c2cc(N(C)C3CC3)c3cnn(C(C)C)c3n2)c1` [Compound 95] displayed an IC50 of 6.8 µM.

`CNCCN(C)Cc1cccc(-c2cc(C(=O)NC3CCOCC3)c3cnn(C4CC4)c3n2)c1` [Compound 87] gave an IC50 of 2.17 µM.

As to `CNCCN(C)Cc1cccc(-c2cc(C(=O)NCC3CCOCC3)c3cnn(C(C)C)c3n2)c1` [Compound 105], the IC50 came to 1.36 µM.

`CCOc1cc(-c2cccc(CN(C)CCNC)c2)nc2c1cnn2C(C)C` [Compound 53] showed an IC50 of 3.47 µM.

`CCS(=O)(=O)Nc1cc(-c2cccc(CN(C)CCN)c2)nc2c1cnn2C(C)C` [Compound 111] returned an IC50 of 11.9 µM.

Regarding `CC(C)n1ncc2c(NC(=O)OCc3ccccc3)cc(-c3cccc(CN(C)CCN)c3)nc21` [Compound 84], the IC50 came out at 13.3 µM.

Compound `CC(C)n1ncc2c(N3CCOCC3)cc(-c3cccc(CN(C)CCN)c3)nc21` [Compound 61, N1-(3-(1-isopropyl-4-morpholino-1H-pyrazolo[3,4-b]pyridin-6-yl)benzyl)-N1-methylethane-1,2-diamine] showed an IC50 of 5.66 µM.

In the case of `CNCCN(C)Cc1cccc(-c2cc(NC)c3cnn(C(C)C)c3n2)c1` [Compound 121], the IC50 came to 7.45 µM.

As for `CNCCN(C)Cc1cccc(-c2cc(N3CCC(OC)CC3)c3cnn(C(C)C)c3n2)c1` [Compound 51], the midpoint of inhibition, the IC50, lay at 5.39 µM.

As for `CN(CCN)Cc1cccc(-c2nc(NCc3ccncc3)c3cnn(C4CC4)c3n2)c1` [Compound 66], it took 20 µM to reach half-maximal inhibition (IC50).

For `CNCCN(C)Cc1cccc(-c2cc(OC3CCOC3)c3cnn(C(C)C)c3n2)c1` (stereo not shown) [Compound 102], inhibition was half-maximal at 10.9 µM (IC50).

In the case of `CC(C)n1ncc2c(C(=O)NCc3ccccc3Cl)cc(-c3cccc(CN(C)CCN)c3)nc21` [Compound 54], half-maximal inhibition (IC50) required 20 µM.

The next assay concerns the target PRMT5 (Homo sapiens, UniProt O14744). Nature of the assay: PRMT5 IC50 (Table 2; no method described). The class given is biochemical. The settings on record: read-out: PRMT5_ IC50.
Take `COc1ccccc1Cn1cnc2ccc(-c3ccc(CNCCN)cc3)cc21` [Compound 80]: the IC50 was 0.161 µM.

For the compound `Cc1cccc(-n2cnc3ccc(-c4ccc(CNCCN)cc4)cc32)c1` [Compound 106], the IC50 worked out at 0.178 µM.

Regarding `Cc1ccc(Cn2cnc3ccc(-c4ccc(CNCCN)cc4)cc32)cc1` [Compound 97], the IC50 was 0.0659 µM.

As to `COc1cccc(-n2cnc3ccc(-c4ccc(CNCCN)cc4)cc32)c1` [Compound 110], the IC50 is 0.273 µM.

In the case of `CNCCN(C)Cc1cccc(-c2ccc3cnn(C(C)C)c3n2)c1` [Compound 73], the concentration for half-maximal inhibition (IC50) amounted to 50 µM.

As to `COc1cccc(CCn2cnc3ccc(-c4ccc(CNCCN)cc4)cc32)c1` [Compound 94], the IC50 stood at 0.0888 µM.

Turning to `Cc1ccccc1Cn1cnc2ccc(-c3ccc(CNCCN)cc3)cc21` [Compound 82], the IC50 worked out at 0.236 µM.

For the compound `NCCNCc1ccc(-c2ccc3ncn(Cc4ccc(C(=O)N5CCCC5)cc4)c3c2)cc1` [Compound 104], the half-inhibitory concentration (IC50) stood at 0.1 µM.

For `COc1cccc(Cn2cnc3ccc(-c4ccc(CN(C)CCN)cc4)cc32)c1` [Compound 8], the IC50 came out at 16 µM.

`NCCNCc1ccc(-c2ccc3ncn(CC4CCCNC4)c3c2)cc1` (stereo not shown) [Compound 81]: the half-maximal inhibitory concentration (IC50) was found to be 0.321 µM.

As to `CNCCN(C)Cc1cccc(-c2ccc3cnn(C(C)C)c3c2)c1` [Compound 100], the IC50 was 50 µM.

In the case of `NCCNCc1ccc(-c2ccc3ncn(CC4CCNCC4)c3c2)cc1` [Compound 70], the IC50 turned out to be 0.421 µM.

In the case of `CNCCN(C)Cc1cccc(-c2cc(N(C)C3CC3)c3cnn(C(C)C)c3n2)c1` [Compound 95], the IC50 was 200 µM.

As for `Cc1c(C(=O)NCc2ccccc2)cc(-c2ccc(CN(C)CCN)cc2)c2cn[nH]c12` [Compound 7], the IC50 is 22.5 µM.

With `CC(C)n1ncc2c(NC(=O)OCc3ccccc3)cc(-c3cccc(CN(C)CCN)c3)nc21` [Compound 84], the IC50 amounted to 27.7 µM.

As for `COc1ccccc1-c1nc2ccc(-c3ccc(CNCCN)cc3)cc2[nH]1` [Compound 115], the IC50 is 0.343 µM.
